In patent US8658363B2, “Cell, method, and assay kit for measuring level of aryl hydrocarbon receptor transcriptional activation” (priority 2009, dated 2014):

Target: T1, Ah receptor (Rattus norvegicus, UniProt P41738)
T1 construct: pcDNA4/V5-His B was linked with the coding region of the rat Ah receptor gene; expressed in transfected cells
T1 sequence (P41738 10-853): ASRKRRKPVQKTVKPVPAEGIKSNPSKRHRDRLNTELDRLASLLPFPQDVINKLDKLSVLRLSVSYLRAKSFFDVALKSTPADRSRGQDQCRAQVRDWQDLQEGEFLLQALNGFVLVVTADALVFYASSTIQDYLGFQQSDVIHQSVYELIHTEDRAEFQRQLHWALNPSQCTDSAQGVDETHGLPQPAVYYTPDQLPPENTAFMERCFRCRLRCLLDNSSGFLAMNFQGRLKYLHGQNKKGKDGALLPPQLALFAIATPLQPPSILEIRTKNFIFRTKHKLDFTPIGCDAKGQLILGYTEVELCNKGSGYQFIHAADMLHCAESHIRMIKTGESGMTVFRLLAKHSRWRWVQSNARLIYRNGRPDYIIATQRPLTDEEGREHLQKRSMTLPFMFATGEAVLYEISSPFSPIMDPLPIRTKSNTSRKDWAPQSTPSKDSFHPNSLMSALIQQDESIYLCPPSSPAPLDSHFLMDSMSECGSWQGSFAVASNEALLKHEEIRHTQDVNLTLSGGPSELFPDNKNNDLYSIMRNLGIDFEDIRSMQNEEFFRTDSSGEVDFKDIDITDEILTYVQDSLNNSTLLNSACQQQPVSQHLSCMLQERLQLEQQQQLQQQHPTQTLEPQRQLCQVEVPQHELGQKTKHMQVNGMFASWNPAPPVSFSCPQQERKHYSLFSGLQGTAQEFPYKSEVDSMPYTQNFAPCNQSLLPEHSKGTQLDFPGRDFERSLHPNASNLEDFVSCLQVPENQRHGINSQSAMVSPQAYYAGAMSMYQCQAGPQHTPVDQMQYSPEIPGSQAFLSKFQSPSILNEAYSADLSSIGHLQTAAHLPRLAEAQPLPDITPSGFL
Experiment: Ah receptor transcriptional activation, luciferase reporter in recombinant N2a-SY1 cells
Format: cell-based
Conditions: for N2a-SY1 (magnification of activation) [signal-to-noise ratio] / N2a-SY1 (LUC) compensated value: luciferase luminescence RLU divided by absorbance of β-galactosidase: 24 hours, N2a-SY1 cells
Procedure: The recombinant cells (N2a-SY1) produced in Example 4 were seeded on a 24-well plate with about 80,000 cells per well and then cultured in a […] medium of 10% serum for several hours to overnight.
Next, the medium of the recombinant cell cultured in the above manner was aspirated to remove it, and DF 1:1 mediums of 10% serum which contained a 2,3,7,8-TCDD in concentrations of 0, 0.1, 1, 10, 100 and 1000 pg/mL, respectively were each dispensed in each well with 1 mL per well to culture cells. The culturing of cells was continued, the medium was removed after 24 hours and the cells were washed once with PBS 1 mL per well. Then, 200 μL per well of a PicaGene Cell Culture Lysis Reagent Luβ (manufactured by Toyo B-Net Co., Ltd.) diluted five times was added to each well, which was then allowed to stand at room temperature for 10 minutes or more to dissolve, thereby obtaining a cell extract. The obtained cell extract was frozen-stored in a freezing chamber, this frozen-stored plate was taken out of the freezing chamber, and the cell extract was fused at room temperature. 10 μL of the fused cell extract was transferred to a black 96-well plate. Then, 100 μL per well of a PicaGene (trademark) LT210 luminescence substrate solution was dispensed in each well of the plate and mixed and then, the plate was set to a Mithras LB940 Microplate Reader (manufactured by Berthold Japan K.K.) to measure a luminescence amount continuously. Separately, 10 μL of the above cell extract was transferred to a transparent 96-well plate. 150 μL of a β-galactosidase substrate solution (ONPG substrate solution) was added to each well of the plate, which was incubated at room temperature for 5 minutes, and then, 50 μL of a reaction stop solution (aqueous […] sodium carbonate solution) was added to each well. Then, the plate was set to a micro-plate reader to measure absorbance of each well at 405 nm. Using a standard curve, the absorbance was converted into the amount of β-galactosidase (ng) in the protein extract. The results are shown by a bar graph in FIG. 4, and also in Table 1 showing each value (in the table, each value is a compensated value calculated by dividing the luminescence relative light units (RLU) of luciferase by the absorbance of β-galactosidase and bB/A means the magnification of activation [signal-to-noise ratio]).
The stable recombinant cells (N2a-SY1) produced in Example 4 were seeded on a 24-well plate with about 80,000 cells per well and cultured in a DF 1:1 medium of 10% serum for several hours to overnight.
Next, the medium of the recombinant cell cultured in the above manner was aspirated to remove it, and DF 1:1 mediums of 10% serum which contained PCB126 at concentrations of 0, 0.2, 2, 20, 200, 2000, and 20000 pg/mL respectively were dispensed in each well with 1 mL per well to culture cells. The culturing of cells was continued, the medium was removed after 24 hours and the cells were washed once with PBS 1 mL per well. Then, 200 μL per well of a PicaGene Cell Culture Lysis Reagent Luβ (manufactured by Toyo B-Net Co., Ltd.) diluted five times was added to each well, which was then allowed to stand at room temperature for 10 minutes or more to dissolve, thereby obtaining a cell extract. The obtained cell extract was frozen-stored in a freezing chamber, this frozen-stored plate was taken out of the freezing chamber, and the cell extract was fused at room temperature. 10 μL of the fused cell extract was transferred to a black 96-well plate. Then, 100 μL per well of a PicaGene (trademark) LT210 luminescence substrate solution was dispensed in each well of the plate and mixed and then, the plate was set to a Mithras LB940 Microplate Reader (manufactured by Berthold Japan K.K.) to measure a luminescence amount continuously. Separately, 10 μL of the above cell extract was transferred to a transparent 96-well plate. […]

Clc1cc2c(cc1Cl)Oc1cc(Cl)c(Cl)cc1O2 [2,3,7,8-TCDD]
N2a-SY1 (magnification of activation) [signal-to-noise ratio] (2,3,7,8-TCDD 0.01 pg/ml vs 0 pg/ml): 1. | N2a-SY1 (LUC) compensated value: luciferase luminescence RLU divided by absorbance of β-galactosidase (2,3,7,8-TCDD 0.01 pg/ml): 1187.8 | N2a-SY1 (magnification of activation) [signal-to-noise ratio] (2,3,7,8-TCDD 0.1 pg/ml vs 0 pg/ml): 1.24 | N2a-SY1 (LUC) compensated value: luciferase luminescence RLU divided by absorbance of β-galactosidase (2,3,7,8-TCDD 0.1 pg/ml): 1451.5 | N2a-SY1 (magnification of activation) [signal-to-noise ratio] (2,3,7,8-TCDD 1 pg/ml vs 0 pg/ml): 1.34 | N2a-SY1 (LUC) compensated value: luciferase luminescence RLU divided by absorbance of β-galactosidase (2,3,7,8-TCDD 1 pg/ml): 1577.6 | N2a-SY1 (magnification of activation) [signal-to-noise ratio] (2,3,7,8-TCDD 10 pg/ml vs 0 pg/ml): 3.43 | N2a-SY1 (LUC) compensated value: luciferase luminescence RLU divided by absorbance of β-galactosidase (2,3,7,8-TCDD 10 pg/ml): 4029.7 | N2a-SY1 (magnification of activation) [signal-to-noise ratio] (2,3,7,8-TCDD 100 pg/ml vs 0 pg/ml): 4.88 | N2a-SY1 (LUC) compensated value: luciferase luminescence RLU divided by absorbance of β-galactosidase (2,3,7,8-TCDD 100 pg/ml): 5718.5 | N2a-SY1 (magnification of activation) [signal-to-noise ratio] (2,3,7,8-TCDD 1000 pg/ml vs 0 pg/ml): 5.22 | N2a-SY1 (LUC) compensated value: luciferase luminescence RLU divided by absorbance of β-galactosidase (2,3,7,8-TCDD 1000 pg/ml): 6132.5 | concentration in a sample that may be detected (Ah receptor transcriptional activation) (recombinant cell of the embodiment): 0.1 pg/mL

Clc1ccc(-c2cc(Cl)c(Cl)c(Cl)c2)cc1Cl [PCB126]
N2a-SY1 (magnification of activation) [signal-to-noise ratio] (PCB126 0.2 pg/ml vs 0 pg/ml): 0.91 | N2a-SY1 (LUC) compensated value: luciferase luminescence RLU divided by absorbance of β-galactosidase (PCB126 0.2 pg/ml): 1882.6 | N2a-SY1 (magnification of activation) [signal-to-noise ratio] (PCB126 2 pg/ml vs 0 pg/ml): 1.15 | N2a-SY1 (LUC) compensated value: luciferase luminescence RLU divided by absorbance of β-galactosidase (PCB126 2 pg/ml): 2388 | N2a-SY1 (magnification of activation) [signal-to-noise ratio] (PCB126 20 pg/ml vs 0 pg/ml): 1.92 | N2a-SY1 (LUC) compensated value: luciferase luminescence RLU divided by absorbance of β-galactosidase (PCB126 20 pg/ml): 3991 | N2a-SY1 (magnification of activation) [signal-to-noise ratio] (PCB126 200 pg/ml vs 0 pg/ml): 2.74 | N2a-SY1 (LUC) compensated value: luciferase luminescence RLU divided by absorbance of β-galactosidase (PCB126 200 pg/ml): 5685.8 | N2a-SY1 (magnification of activation) [signal-to-noise ratio] (PCB126 2000 pg/ml vs 0 pg/ml): 3.08 | N2a-SY1 (LUC) compensated value: luciferase luminescence RLU divided by absorbance of β-galactosidase (PCB126 2000 pg/ml): 6401.6 | N2a-SY1 (magnification of activation) [signal-to-noise ratio] (PCB126 20000 pg/ml vs 0 pg/ml): 3.02 | N2a-SY1 (LUC) compensated value: luciferase luminescence RLU divided by absorbance of β-galactosidase (PCB126 20000 pg/ml): 6264.8 | N2a-SY1 (magnification of activation) [signal-to-noise ratio] (PCB126 200000 pg/ml vs 0 pg/ml): 3.02 | N2a-SY1 (LUC) compensated value: luciferase luminescence RLU divided by absorbance of β-galactosidase (PCB126 200000 pg/ml): 6268.9
